These compounds were tested against Mitogen-activated protein kinase 8 (Homo sapiens, UniProt P45983) (assay: Inhibition of JNK1).
Sequence of Mitogen-activated protein kinase 8 (P45983 whole entry): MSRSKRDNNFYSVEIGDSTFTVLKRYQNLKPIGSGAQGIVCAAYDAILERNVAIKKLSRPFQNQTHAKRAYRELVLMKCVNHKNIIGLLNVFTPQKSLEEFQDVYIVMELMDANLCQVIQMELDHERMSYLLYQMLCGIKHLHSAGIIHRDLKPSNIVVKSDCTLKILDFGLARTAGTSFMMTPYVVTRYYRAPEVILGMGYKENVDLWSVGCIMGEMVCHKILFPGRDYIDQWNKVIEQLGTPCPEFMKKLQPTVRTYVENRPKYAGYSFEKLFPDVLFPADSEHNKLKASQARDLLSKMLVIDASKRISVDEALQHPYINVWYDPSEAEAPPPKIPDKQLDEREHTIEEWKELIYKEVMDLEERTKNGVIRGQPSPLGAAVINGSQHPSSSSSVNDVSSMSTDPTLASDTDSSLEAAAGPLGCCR

IC50 | SMILES
1500 nM | CC(C)[C@H](CO)Nc1nc(C(=O)NCc2ccc(S(C)(=O)=O)cc2)cc(N)c1C#N
22 nM | C[C@@H](CO)Oc1nc(C(=O)NCc2ccc(S(C)(=O)=O)cc2)cc(N)c1C#N
1640 nM | CS(=O)(=O)c1ccc(CNC(=O)c2cc(N)c(C#N)c(OCCC(=O)O)n2)cc1
180 nM | C[C@@H](CO)Nc1nc(C(=O)NCc2ccc(S(C)(=O)=O)cc2)cc(N)c1C#N
